Patent US5096907A, “Antibiotic LL-E19085” (American Cyanamid Company, priority 1991, dated 1992)
Values after ≈ are worked out from the molar mass of the structure shown. Like-named read-outs stand apart in the source and are kept apart here.

Legend:
Assay in all cases: In vitro antibacterial activity, agar dilution
Type in all cases: cell-based
[1] = system: Staphylococcus hemolyticus; conditions: read-out: Minimal Inhibitory Concentration
Description: (§1) The in vitro antibacterial effects of antibiotics LL-E19085α, LL-E19085β, LL-E19085γ, LL-E19085.zeta. and LL-E19085.eta. were determined by standard agar dilution methods against clinical isolates obtained from medical centers representing various geographical areas in the United States. The inoculum of each culture was approximately 1 to 5×10^4 colony forming units applied with a Steers multiple inocula replicator to plates containing the antibiotic in Mueller-Hinton agar. The agar was supplemented with about 5% sheep blood where required for the growth of the organism.

[2] = system: Streptococcus a-hemolyticus; conditions: strain AMCH 88-84, Mueller-Hinton agar, read-out: Minimal Inhibitory Concentration
Description: as §1

[3] = system: Escherichia coli
Description: as §1

[4] = system: Enterococcus; conditions: read-out: Minimal Inhibitory Concentration
Description: as §1

[5] = system: Klebsiella pneumoniae; conditions: read-out: Minimal Inhibitory Concentration
Description: as §1

[6] = system: Enterococcus Grp D; conditions: strain WRVA 88-33, Mueller-Hinton agar, read-out: Minimal Inhibitory Concentration
Description: as §1

[7] = system: Bacteroides cereus; conditions: read-out: Minimal Inhibitory Concentration
Description: as §1

[8] = system: Streptococcus faecalis; conditions: Enterococcus faecalis, Mueller-Hinton agar, read-out: Minimal Inhibitory Concentration
Description: as §1

[9] = system: Streptococcus pneumoniae; conditions: read-out: Minimal Inhibitory Concentration
Description: as §1

[10] = system: Staphylococcus aureus; conditions: read-out: Minimal Inhibitory Concentration
Description: as §1

[11] = system: Streptococcus b-hemolyticus; conditions: strain AMCH 88-86, Mueller-Hinton agar, read-out: Minimal Inhibitory Concentration
Description: as §1

[12] = system: Staphylococcus saphrophiticus; conditions: strain VGH 84-50, Mueller-Hinton agar, read-out: Minimal Inhibitory Concentration
Description: as §1

[13] = system: Staphylococcus epidermidis; conditions: strain IO 83-58, Mueller-Hinton agar, read-out: Minimal Inhibitory Concentration
Description: as §1

[14] = system: Bacteroides theta; conditions: read-out: Minimal Inhibitory Concentration
Description: as §1

[15] = system: erratia rubidea; conditions: strain UHL 86-4; Mueller-Hinton agar; read-out: Minimal Inhibitory Concentration
Description: as §1

[16] = system: Clostridium perfringen; conditions: ATCC13124, strain ATCC 13124, Mueller-Hinton agar, read-out: Minimal Inhibitory Concentration
Description: as §1

[17] = system: Peptococcus magnus; conditions: Finegoldia magna, Mueller-Hinton agar, read-out: Minimal Inhibitory Concentration
Description: as §1

[18] = system: Bacteroides fragilis; conditions: ATCC25285, strain ATCC 25285, Mueller-Hinton agar, read-out: Minimal Inhibitory Concentration
Description: as §1

[19] = system: Bacteroides vulgaris; conditions: ATCC29327, strain ATCC 29327, Mueller-Hinton agar, read-out: Minimal Inhibitory Concentration
Description: as §1

[20] = system: Serratia marcescens; conditions: strain K 84-14, Mueller-Hinton agar, read-out: Minimal Inhibitory Concentration
Description: as §1

[21] = system: Alcaligenes ssp.; conditions: strain ISG 86-34, Mueller-Hinton agar, read-out: Minimal Inhibitory Concentration
Description: as §1

[22] = system: Peptococcus asacrolytis; conditions: strain ATCC 29743; Mueller-Hinton agar; read-out: Minimal Inhibitory Concentration
Description: as §1

[23] = system: Streptococcus β-hemolyticus; conditions: Mueller-Hinton agar
Description: as §1

[24] = system: Citrobacter diversis; conditions: strain MOR 84-3, Mueller-Hinton agar, read-out: Minimal Inhibitory Concentration
Description: as §1

[25] = system: Pseudomonas aeruginosa; conditions: strain 12-4-4, Mueller-Hinton agar, read-out: Minimal Inhibitory Concentration
Description: as §1

[26] = system: Proteus vulgaris; conditions: strain CMC 84-35, Mueller-Hinton agar, read-out: Minimal Inhibitory Concentration
Description: as §1

[27] = system: Enterobacter cloacae; conditions: strain VGH 84-37, Mueller-Hinton agar, read-out: Minimal Inhibitory Concentration
Description: as §1

[28] = system: Morganella morganii; conditions: strain VGH 84-11, Mueller-Hinton agar, read-out: Minimal Inhibitory Concentration
Description: as §1

[29] = system: Clostridium differensis; conditions: ATCC17858, strain ATCC 17858, Mueller-Hinton agar, read-out: Minimal Inhibitory Concentration
Description: as §1

[30] = ATCC25922, strain ATCC 25922, Mueller-Hinton agar, read-out: Minimal Inhibitory Concentration
[31] = ATCC25923, strain ATCC 25923, Mueller-Hinton agar
[32] = ATCC29213, strain ATCC 29213, Mueller-Hinton agar
[33] = strain CMC 83-131, Mueller-Hinton agar

Question: With `COc1cc2oc3c(c(=O)c2cc1OC)C(=O)c1c(ccc2cc4c(c(O)c12)C(=O)N1C(C)(C4)OC(=O)C1(C)COC(=O)C(C)C)C3=O` (stereo not drawn) [LL-E19085β] as the compound, how does the MIC ([1]; strain AVAH 88-1, Mueller-Hinton agar) read?
Answer: 2 µg/mL (≈ 3.05 µM)

Question: And the MIC ([1]; strain AVAH 88-3, Mueller-Hinton agar)?
Answer: 4 µg/mL (≈ 6.1 µM)

Question: And the MIC [2]?
Answer: 0.5 µg/mL (≈ 0.763 µM)

Question: What about the MIC [3, 30] of the same compound?
Answer: > 64 µg/mL

Question: What about the MIC ([3]; ATCC35218, strain ATCC 35218, Mueller-Hinton agar, read-out: Minimal Inhibitory Concentration) of the same compound?
Answer: > 64 µg/mL

Question: And the MIC ([3]; read-out: Minimal Inhibitory Concentration, strain D21, Mueller-Hinton agar)?
Answer: ≥ 64 µg/mL

Question: What about the MIC ([3]; strain D22, Mueller-Hinton agar, read-out: Minimal Inhibitory Concentration) of the same compound?
Answer: 8 µg/mL (≈ 12.2 µM)

Question: And the MIC ([4]; strain CHBM 88-60, Mueller-Hinton agar)?
Answer: 2 µg/mL (≈ 3.05 µM)

Question: And the MIC ([5]; strain NEMC 87-271, Mueller-Hinton agar)?
Answer: ≥ 64 µg/mL

Question: What about the MIC [6] of the same compound?
Answer: 2 µg/mL (≈ 3.05 µM)

Question: And the MIC [7]?
Answer: 2 µg/mL (≈ 3.05 µM)

Question: What about the MIC ([8]; strain ARUM 87-41) of the same compound?
Answer: 2 µg/mL (≈ 3.05 µM)

Question: What about the MIC ([8]; strain CMC 83-120) of the same compound?
Answer: 2 µg/mL (≈ 3.05 µM)

Question: What about the MIC ([8]; strain VCH 84-69) of the same compound?
Answer: 2 µg/mL (≈ 3.05 µM)

Question: What about the MIC ([8]; strain VCI 85-30) of the same compound?
Answer: 2 µg/mL (≈ 3.05 µM)

Question: What about the MIC ([9]; strain CHBB 88-75, Mueller-Hinton agar) of the same compound?
Answer: 0.12 µg/mL (≈ 0.183 µM)

Question: What about the MIC ([9]; strain CHBM 88-70, Mueller-Hinton agar) of the same compound?
Answer: 0.25 µg/mL (≈ 0.381 µM)

Question: And the MIC ([9]; strain TEX 85-2, Mueller-Hinton agar)?
Answer: 0.12 µg/mL (≈ 0.183 µM)

Question: And the MIC [10, 31]?
Answer: 0.5 µg/mL (≈ 0.763 µM)

Question: And the MIC [10, 32]?
Answer: 2 µg/mL (≈ 3.05 µM)

Question: And the MIC [10, 33]?
Answer: 4 µg/mL (≈ 6.1 µM)

Question: What about the MIC ([10]; strain IVES 542, Mueller-Hinton agar) of the same compound?
Answer: 4 µg/mL (≈ 6.1 µM)

Question: And the MIC ([10]; strain K82-26, Mueller-Hinton agar)?
Answer: 2 µg/mL (≈ 3.05 µM)

Question: And the MIC ([10]; strain NEMC 87-69, Mueller-Hinton agar)?
Answer: 4 µg/mL (≈ 6.1 µM)

Question: What about the MIC ([10]; strain ROSE (MP), Mueller-Hinton agar) of the same compound?
Answer: 2 µg/mL (≈ 3.05 µM)

Question: And the MIC ([10]; strain VGH 84-47, Mueller-Hinton agar)?
Answer: 4 µg/mL (≈ 6.1 µM)

Question: What about the MIC [11] of the same compound?
Answer: 2 µg/mL (≈ 3.05 µM)

Question: `COc1cc2oc3c(c(=O)c2cc1OC)C(=O)c1c(ccc2cc4c(c(O)c12)C(=O)N1C(C)(C4)OC(=O)C1(C)COC(=O)CC(C)C)C3=O` (stereo not drawn) [LL-E19085α] was tested. Which MIC [12] did it give?
Answer: ≤ 0.06 µg/mL

Question: What about the MIC [13] of the same compound?
Answer: ≤ 0.06 µg/mL

Question: And the MIC [3, 30]?
Answer: > 128 µg/mL

Question: And the MIC ([3]; strain No. 311, Mueller-Hinton agar, read-out: Minimal Inhibitory Concentration)?
Answer: > 128 µg/mL

Question: What about the MIC ([14]; ATCC29741, strain ATCC 29741, Mueller-Hinton agar) of the same compound?
Answer: 4 µg/mL (≈ 5.97 µM)

Question: And the MIC ([14]; ATCC29742, strain ATCC 29742, Mueller-Hinton agar)?
Answer: 4 µg/mL (≈ 5.97 µM)

Question: What about the MIC [15] of the same compound?
Answer: > 128 µg/mL

Question: What about the MIC ([4]; strain CMC 83-72, Mueller-Hinton agar) of the same compound?
Answer: ≤ 0.06 µg/mL

Question: And the MIC ([4]; strain IO 83-28, Mueller-Hinton agar)?
Answer: ≤ 0.06 µg/mL

Question: And the MIC ([4]; strain IO 83-40, Mueller-Hinton agar)?
Answer: 0.12 µg/mL (≈ 0.179 µM)

Question: And the MIC ([4]; strain VGH 84-65, Mueller-Hinton agar)?
Answer: ≤ 0.06 µg/mL

Question: What about the MIC ([4]; strain VGH 84-68, Mueller-Hinton agar) of the same compound?
Answer: ≤ 0.06 µg/mL

Question: What about the MIC [16] of the same compound?
Answer: ≤ 0.06 µg/mL

Question: What about the MIC ([5]; strain AD, Mueller-Hinton agar) of the same compound?
Answer: > 128 µg/mL

Question: What about the MIC ([17]; ATCC14956, strain ATCC 14956) of the same compound?
Answer: ≤ 0.06 µg/mL

Question: And the MIC ([17]; ATCC29328, strain ATCC 29328)?
Answer: ≤ 0.06 µg/mL

Question: And the MIC [18]?
Answer: 16 µg/mL (≈ 23.9 µM)

Question: What about the MIC [19] of the same compound?
Answer: ≤ 0.06 µg/mL

Question: And the MIC [20]?
Answer: > 128 µg/mL

Question: And the MIC [21]?
Answer: > 128 µg/mL

Question: And the MIC [22]?
Answer: ≤ 0.06 µg/mL

Question: What about the MIC ([23]; Streptococcus, strain C 203, read-out: Minimal Inhibitory Concentration) of the same compound?
Answer: ≤ 0.06 µg/mL

Question: What about the “Minimal Inhibitory Concentration” value ([23]; strain VGH 84-60) of the same compound?
Answer: ≤ 0.06 µg/mL

Question: What about the “Minimal Inhibitory Concentration” value ([23]; strain VGH 84-61) of the same compound?
Answer: ≤ 0.06 µg/mL

Question: What about the “Minimal Inhibitory Concentration” value ([23]; strain VGH 84-62) of the same compound?
Answer: ≤ 0.06 µg/mL

Question: And the MIC [24]?
Answer: > 128 µg/mL

Question: And the MIC [25]?
Answer: > 128 µg/mL

Question: What about the MIC [26] of the same compound?
Answer: > 128 µg/mL

Question: And the MIC ([9]; strain K 84-21, Mueller-Hinton agar)?
Answer: ≤ 0.06 µg/mL

Question: And the MIC ([9]; strain SV-1, Mueller-Hinton agar)?
Answer: ≤ 0.06 µg/mL

Question: And the MIC [27]?
Answer: > 128 µg/mL

Question: And the MIC [10, 31]?
Answer: 0.12 µg/mL (≈ 0.179 µM)

Question: What about the MIC [10, 32] of the same compound?
Answer: ≤ 0.06 µg/mL

Question: What about the MIC ([10]; strain CMC 83-127, Mueller-Hinton agar) of the same compound?
Answer: ≤ 0.06 µg/mL

Question: And the MIC [10, 33]?
Answer: ≤ 0.06 µg/mL

Question: What about the MIC ([10]; strain CMC 83-132, Mueller-Hinton agar) of the same compound?
Answer: ≤ 0.06 µg/mL

Question: And the MIC ([10]; strain SSC 82-57, Mueller-Hinton agar)?
Answer: ≤ 0.06 µg/mL

Question: What about the MIC ([10]; strain Smith, Mueller-Hinton agar) of the same compound?
Answer: 0.12 µg/mL (≈ 0.179 µM)

Question: What about the MIC ([10]; strain VGH 84-45, Mueller-Hinton agar) of the same compound?
Answer: ≤ 0.06 µg/mL

Question: What about the MIC [28] of the same compound?
Answer: > 128 µg/mL

Question: And the MIC [29]?
Answer: ≤ 0.06 µg/mL
